This is an account of results in US11278602B2, “Medicine for Covid-19 and treatment” (Therapeutica Borealis Oy, priority 2020, dated 2022).

The conditions of data set [1]: components of the nasal spray; cited from earlier work.
Data set [2] is described as follows: pKa / protonation state of weak base. As to conditions: per the Henderson-Hasselbalch equation. Format: physicochemical. The source says: Nicotine is also known to be a weak base, pH 8.5. It has been shown in earlier in vitro studies that it could inhibit receptor mediated endosytosis. Due to the fact that it is a weak base it could penetrate cell membrane especially at pH near its isoelectric point and thus it may also effect glycosylation at Golgi compartment.

With `CCN(CCO)CCCC(C)Nc1ccnc2cc(Cl)ccc12` (stereo not shown) [Hydroxychloroquine], the solubility in water result in data set [1] is “at least 200 mg/mL”.

In the case of `CCN(CC)CCCC(C)Nc1ccnc2cc(Cl)ccc12` (stereo not shown) [chloroquine], the “deprotonated at physiological pH” value in data set [2] was “about 10%”.

Turning to Aprotinin, the solubility in water in data set [1] is reported as above 10 mg/mL.

For the molecule Ivermectin, in data set [1], the solubility in water was 50 mg/mL.
